Assay results as given in patent US9592210B2, “1-phenylalkanecarboxylic acid derivatives for the treatment of cognitive impairment” (Chiesi Farmaceutici S.p.A., priority 2011, dated 2017).
Like-named read-outs stand apart in the source and are kept apart here.

Experiments:
[1] = test system: γ-secretase; details: cited from earlier work
[2] = test system: dendritic spine density; details: mice; cited from earlier work
[3] = test system: γ-secretase; details: cited from earlier work; remark: listed apart in the source
[4] = test system: AD patients; details: cited from earlier work
[5] = species not given; follows mice and rats; cited from earlier work
[6] = rats, oral; cited from earlier work
[7] = molecular target: COX-1 (Homo sapiens, UniProt P23219); details: concentrations up to 100 μM; cited from earlier work
[8] = test system: Notch intracellular cleavage in human embryonic kidney 293 swe cells; details: 5 μM; cited from earlier work
[9] = mice, oral; cited from earlier work
[10] = dogs, cited from earlier work
[11] = test system: NICD-responsive genes; details: 100 μM; cited from earlier work
[12] = guinea-pigs, cited from earlier work
[13] = test system: human neuroglioma cells over-expressing the Swedish mutated APP (H4swe); details: read-out: IC50 for lowering Aβ42 secretion; cited from earlier work
[14] = Morris water maze (preclinical); assay type: in vivo; details: preclinical study
[15] = Fear conditioning (preclinical); assay type: in vivo; details: preclinical studies
[16] = test system: transgenic mouse models of AD; details: cited from earlier work
[17] = molecular target: T1, COX-2 (Homo sapiens, UniProt P35354); details: concentrations up to 300 μM; cited from earlier work
T1 sequence (P35354 18-604): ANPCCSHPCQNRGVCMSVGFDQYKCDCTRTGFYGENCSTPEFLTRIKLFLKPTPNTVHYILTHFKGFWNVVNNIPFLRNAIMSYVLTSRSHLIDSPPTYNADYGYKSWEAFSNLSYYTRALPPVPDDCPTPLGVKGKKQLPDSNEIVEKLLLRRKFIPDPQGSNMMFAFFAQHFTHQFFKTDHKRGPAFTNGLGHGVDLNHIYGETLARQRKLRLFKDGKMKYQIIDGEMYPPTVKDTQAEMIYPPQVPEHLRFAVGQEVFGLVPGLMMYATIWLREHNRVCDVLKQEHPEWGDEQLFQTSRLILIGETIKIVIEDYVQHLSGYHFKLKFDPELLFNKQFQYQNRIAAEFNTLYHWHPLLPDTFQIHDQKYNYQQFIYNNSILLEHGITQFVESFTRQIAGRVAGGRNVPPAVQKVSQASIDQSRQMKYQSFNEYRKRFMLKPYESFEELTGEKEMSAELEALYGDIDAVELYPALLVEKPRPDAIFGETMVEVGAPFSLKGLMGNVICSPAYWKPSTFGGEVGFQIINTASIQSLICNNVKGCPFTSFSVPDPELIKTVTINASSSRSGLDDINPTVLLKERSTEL

[18] = Object recognition test (preclinical); assay type: in vivo; details: preclinical stage

COX-1, sequence (P23219 24-599): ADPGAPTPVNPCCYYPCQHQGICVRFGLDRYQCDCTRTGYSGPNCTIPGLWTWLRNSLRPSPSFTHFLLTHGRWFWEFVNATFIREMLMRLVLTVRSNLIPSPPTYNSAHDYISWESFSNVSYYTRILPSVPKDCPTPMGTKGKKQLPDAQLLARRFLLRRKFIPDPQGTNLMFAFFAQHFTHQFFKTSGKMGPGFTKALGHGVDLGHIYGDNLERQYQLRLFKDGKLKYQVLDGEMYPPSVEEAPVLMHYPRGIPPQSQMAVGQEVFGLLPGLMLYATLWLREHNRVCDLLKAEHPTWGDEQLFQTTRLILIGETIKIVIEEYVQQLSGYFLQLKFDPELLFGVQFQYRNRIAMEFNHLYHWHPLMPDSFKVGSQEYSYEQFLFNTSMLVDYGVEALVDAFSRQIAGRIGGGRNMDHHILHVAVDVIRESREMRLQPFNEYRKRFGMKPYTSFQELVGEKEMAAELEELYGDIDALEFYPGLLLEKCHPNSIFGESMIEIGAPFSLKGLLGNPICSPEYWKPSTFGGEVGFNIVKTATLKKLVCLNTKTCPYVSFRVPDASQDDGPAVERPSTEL

CC(C)Cc1ccc(C(C)C(=O)O)cc1 (stereo not drawn) [ibuprofen]
formation of Aβ38 [1]: increase
production of Aβ42 [1]: lower

CC(C(=O)O)c1ccc(-c2ccccc2)c(F)c1 (stereo not drawn) [flurbiprofen]
formation of Aβ38 [1]: increase
production of Aβ42 [1]: lower

CC(C)[C@H](O)C(=O)N[C@@H](C)C(=O)N[C@@H]1C(=O)N(C)CCc2ccccc21 [semagacestat]
dendritic spine density [2]: decrease
brain and CSF levels of Aβ42 peptide ([3]; brain and CSF): increase
brain level of C-terminal fragment of APP (CTFβ or C99) ([3]; brain): accumulation
cognition and ability to complete activities of daily living versus placebo ([4]; interim analysis of two Phase 3 trials): worsened over time to a statistically significantly higher rate
rate of skin cancer compared to placebo ([4]; two 21-month Phase 3 trials, more than 2,600 AD patients): increased rate of skin cancer

O=C(O)C1(c2ccc(-c3ccc(Cl)c(Cl)c3)c(F)c2)CC1 [CHF 5074, 1-(3′,4′-dichloro-2-fluorobiphenyl-4-yl)cyclopropanecarboxylic acid]
brain levels as % of corresponding plasma concentrations [5]: 3-14%
absorbed orally [6]: 50%
inhibitory activity on COX-1 [7]: does not display inhibitory activity
effects on Notch intracellular cleavage [8]: no effects were observed
absorbed orally [9]: 74%
absorbed by oral route ([10]; oral): 80-100%
plasma elimination t1/2 [10]: ≈ 24 hours
expression profile of several NICD-responsive genes [11]: does not alter
plasma elimination half-life t1/2 ([12]; after oral administration): ≈ 30 hours
brain penetration [12]: 3-9%
IC50 [13]: 3.6 µM
Morris water maze performance [14]: marginal effects
fear conditioning performance [15]: significantly improved
tolerability ([16]; 60 mg/kg/day, prolonged treatment for 4-9 months, mice): well tolerated
neuropathological and behavioral activity ([16]; oral doses of 60 mg/kg/day): active from neuropathological and behavioral points of view
inhibitory activity on COX-2 [17]: does not display inhibitory activity
object recognition test performance [18]: positive effects

COc1ccc2c(c1)c(CC(=O)O)c(C)n2C(=O)c1ccc(Cl)cc1 [indomethacin]
formation of Aβ38 [1]: increase
production of Aβ42 [1]: lower

CSc1ccc(/C=C2/C(C)=C(CC(=O)O)c3cc(F)ccc32)cc1 [sulindac sulfide]
formation of Aβ38 [1]: increase
production of Aβ42 [1]: lower
